Assay [1] relates to AHAS of S4897 sunflower (Ala107-to-Thr AHASL1). The experiment in a line: AHAS activity analysis of young leaves. The conditions noted are these: S4897 vs Clearfield and conventional non-Clearfield variety; higher concentration of imazamox (FIG. 7). It counts as biochemical, Helianthus annuus. On the procedure:
FIG. 7 is graphical illustration of a comparison of the inhibition of AHAS by Raptor for a non-Clearfield variety, a Clearfield variety and S4897 sunflower plants as described in Example 5.
FIG. 8 is graphical illustration of a comparison of the inhibition of AHAS by Glean for a non-Clearfield variety, a Clearfield variety and S4897 sunflower plants as described in Example 5.
AHAS activity analysis was also conducted by selecting actively growing young leaves from plants that were not sprayed with herbicide at approximately four weeks after planting.

The subject of the next assay is S4897 sunflower plants. Briefly: Greenhouse imazamox spray test (FIG. 3/4), S4897. It counts as in vivo, Helianthus annuus. The conditions noted are these: S4897 vs IMISUN-1 and wild-type; imazamox 100 and 200 g ai/ha; 17 days after application. On the procedure:
(§1) The S4897 and IMISUN-1 sunflower plants were spray-treated with imazamox at rate of 200 g ai/ha. […] The photograph was taken a few days after the plants were spray treated.
(§2) FIG. 4 is graphical illustration of herbicide injury in a greenhouse test following the spray treatment of IMISUN-1, wild-type, and S4897 sunflower plants with imazamox at either 100 (light columns) or 200 g ai/ha (dark columns). […] Herbicide injury was evaluated 17 days after the imazamox application.

The subject of assay [2] is Clearfield sunflower variety A. Briefly: Greenhouse spray injury rating, Clearfield variety A. It counts as in vivo, Helianthus annuus. The text has this:
(§3) Sunflower lines S4897, Clearfield® sunflower varieties A, B, C and a conventional non-Clearfield variety were sprayed with three rates of imazamox (Raptor™), 100, 200 and 300 gm ai/ha plus 0.5% Sun It II and two rates of imazapyr (Arsenal™) 160 and 360 gm ai/ha plus 0.5% Sun It II when the plants were at the two to three leaf stage. Ratings were taken at 14 days after application (DAT) for injury. Injury was rated on a scale from 0 to 9 where 0=no injury to 9=dead plant. Twelve plants were sprayed per herbicide/rate treatment. Statistical analysis was conducted with STATGRAPHICS Plus 5.0 by using ANOVA and LSD procedures.
(§4) After plants were sprayed, it was realized that a height difference between S4897 and other sunflower varieties would have impacted the actual herbicide dose that was delivered. The spray boom height had been calibrated against S4897 and since the other varieties were taller and closer to the boom they would have received a greater dose of herbicide. Rates were recalibrated for the other varieties to determine the approximate dose they would have received. Assessments were made as presented in Table 2 since it was not possible to make a direct rate comparison due to the effect of the height. For example injury scores were compare for S4897 treated imazamox rate 100 gm ai/ha to the other varieties treated at 75 gm ai/ha. The treatment dose of 300 gm ai/ha for line S4897 was equivalent to the treatment of 200 gm ai/ha for the other varieties, which […].

Assay [3] deals with wild-type sunflower plants. The experiment in a line: Greenhouse imazamox spray test (FIG. 3/4), wild-type. It counts as in vivo, Helianthus annuus. Conditions: imazamox 100 or 200 g ai/ha. On the procedure:
as §1, §2

Assay [4] has as its system Clearfield sunflower variety C. The experiment in a line: Greenhouse spray injury rating, Clearfield variety C. The format is in vivo, Helianthus annuus. Conditions: scale 0-9.
Source text: as §3, §4

Assay [5] concerns Conventional non-Clearfield sunflower variety. The experiment in a line: Greenhouse spray injury rating, conventional variety. The conditions noted are these: scale 0-9. It counts as in vivo, Helianthus annuus.
Source text: as §3, §4

For assay [6], the system named is Clearfield sunflower variety B. The experiment in a line: Greenhouse spray injury rating, Clearfield variety B. The format is in vivo, Helianthus annuus. The conditions noted are these: scale 0-9.
Source text: as §3, §4

In a further assay the test system is Sunflower line S4897. The experiment in a line: Greenhouse spray injury rating, line S4897. It counts as in vivo, Helianthus annuus.
Source text: as §3, §4

The test system of another assay is S4897 plants. The experiment in a line: Field trial of resistance to imazapic. The conditions noted are these: S4897 vs IMISUN-1 (Ala190-to-Val); field trials in Argentina; no data presented. It counts as in vivo, Helianthus annuus. On the procedure:
In field trials in Argentina, S4897 plants were tested for resistance to imazapic. […] This trial had single row plots and was treated on a windy day, so the actual herbicide dose reaching the plants was likely less than was applied.

The mark [7] stands for this setting: imazamox 300 gm ai/ha, scale 0-9.

SMILES strings stand for the structures.

We go through two compounds from patent US20150181873A1, “HERBICIDE-RESISTANT SUNFLOWER PLANTS, POLYNUCLEOTIDES ENCODING HERBICIDE=RESISTANT ACETO HYDROXY ACID SYNTHASE LARGE SUBUNIT PROTEINS, AND METHODS OF USE” (NIDERA S.A., priority 2013, published 2015).

For `COCc1cnc(C2=NC(C)(C(C)C)C(=O)N2)c(C(=O)O)c1` (stereo not shown) [Imazamox, imazamox], the “inhibition of AHAS activity” value in [1] is on record as “less inhibition”. The “herbicide injury / resistance or tolerance” value with S4897 sunflower plants was “significantly greater resistance or tolerance”. The “Injury at 14 DAT” value in assay [2] (imazamox 75 gm ai/ha (100/75), scale 0-9) was 4.3 c; in [2] (imazamox 150 gm ai/ha (column 200/150), scale 0-9) it was 4.6 c; in assay [2] (imazamox 150 gm ai/ha (column 200/150), scale 0-9, listed as imazamox), “significantly in juried and had stopped growing”; in [2] (setting [7]), 6.5 days; in [4] (imazamox 75 gm ai/ha (100/75)), 1.8 b; in assay [4] (imazamox 150 gm ai/ha), 2.9 b. The “Injury at 14 DAT” value in assay [4] (imazamox 300 gm ai/ha) was 4.6 b; in [5] (imazamox 75 gm ai/ha (100/75)), 7.2 days; in assay [5] (imazamox 150 gm ai/ha), 8.2 days; in assay [5] (imazamox 300 gm ai/ha), 8.7 e; in assay [6] (imazamox 75 gm ai/ha (100/75)), 1.9 b; in [6] (imazamox 150 gm ai/ha), 4.8 c. Further, the “Injury at 14 DAT” value in assay [6] (imazamox 300 gm ai/ha) was 5.3 c; in the assay on Sunflower line S4897 (imazamox 100 gm ai/ha (100/75), scale 0=no injury to 9=dead plant), 0.5 a; in the assay on Sunflower line S4897 (imazamox 200 gm ai/ha (column 200/150), scale 0-9) it was 0.8 a; with Sunflower line S4897 (imazamox 200 gm ai/ha (column 200/150), scale 0-9, listed as imazamox), “little to no injury”; with Sunflower line S4897 (setting [7]), 0.8 a; in the assay on Sunflower line S4897 (imazamox 300 gm ai/ha, scale 0-9, listed as imazamox), “very little injury”. The “survival following spray treatment” value in assay [3] is on record as “did not survive”.

For the compound `Cc1cnc(C2=NC(=O)C(C)(C(C)C)N2)c(C(=O)O)c1` (stereo not shown) [imazapic], the resistance to imazapic result in the assay on S4897 plants was “clearly superior”.
